These results are taken from patent US6335168B1 (priority 1998, dated 2002).

This assay concerns A118G variant human mu opioid receptor. Format: cell-based. As to conditions: GIRK activation in oocytes.

Take β-endorphin: the “difference of EC50 values between the A118G variant and the most common mu opioid receptors” value was “about three”.
